{"source": "patent US6534289B1", "about": "“Nucleic acids encoding mGLuR/CaR chimera” (NPS Pharmaceuticals, Inc., priority 1995, dated 2003)", "key": {"human CaR": {"biological_target": "T1, human CaR (Homo sapiens, UniProt P41180)", "T1 construct": "expressed in transfected cells; host or cells: Xenopus laevis oocytes injected with in vitro transcribed RNA from phPCaR4.0", "T1 sequence (P41180 20-1078)": "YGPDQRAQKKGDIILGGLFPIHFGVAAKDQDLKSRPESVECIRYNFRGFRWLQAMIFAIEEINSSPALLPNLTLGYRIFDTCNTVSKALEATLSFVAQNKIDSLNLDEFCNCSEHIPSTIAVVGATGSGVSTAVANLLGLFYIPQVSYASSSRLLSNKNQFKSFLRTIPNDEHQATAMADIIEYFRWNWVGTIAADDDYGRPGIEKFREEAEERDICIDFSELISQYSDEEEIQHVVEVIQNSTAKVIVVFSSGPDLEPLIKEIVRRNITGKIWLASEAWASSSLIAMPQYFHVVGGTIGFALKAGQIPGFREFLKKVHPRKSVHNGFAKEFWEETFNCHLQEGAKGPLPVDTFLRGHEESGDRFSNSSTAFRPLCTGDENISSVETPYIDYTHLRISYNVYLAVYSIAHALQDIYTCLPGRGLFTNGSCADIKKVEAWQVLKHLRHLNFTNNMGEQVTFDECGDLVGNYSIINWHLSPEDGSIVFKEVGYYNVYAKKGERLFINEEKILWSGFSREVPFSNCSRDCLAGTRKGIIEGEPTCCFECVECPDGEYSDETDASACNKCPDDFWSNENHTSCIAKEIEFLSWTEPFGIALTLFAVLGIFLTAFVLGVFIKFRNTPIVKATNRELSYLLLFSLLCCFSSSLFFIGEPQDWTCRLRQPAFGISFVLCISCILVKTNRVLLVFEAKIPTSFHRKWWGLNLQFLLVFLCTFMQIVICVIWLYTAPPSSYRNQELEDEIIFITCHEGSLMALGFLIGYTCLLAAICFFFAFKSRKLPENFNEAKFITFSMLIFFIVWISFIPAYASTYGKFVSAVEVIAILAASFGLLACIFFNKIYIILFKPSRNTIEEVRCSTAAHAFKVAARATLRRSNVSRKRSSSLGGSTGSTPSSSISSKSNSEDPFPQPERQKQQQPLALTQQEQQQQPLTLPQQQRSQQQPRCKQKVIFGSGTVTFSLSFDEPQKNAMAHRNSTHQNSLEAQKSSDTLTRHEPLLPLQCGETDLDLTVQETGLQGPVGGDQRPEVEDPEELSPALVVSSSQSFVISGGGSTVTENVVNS", "assay": "Xenopus oocyte voltage clamp, Cl− currents, CaR", "format": "cell-based"}, "[1]": {"tested_on": "HEK293 cells expressing pCEPCaR/R1", "assay": "HEK293/pCEPCaR/R1 Fura assay", "format": "cell-based, human", "conditions": "fura-2 loaded stably transfected HEK293 cells, FIG. 9", "protocol": "The DNA from plasmid pCaR/R1 was digested and cloned into the commercially available episomal mammalian expression vector, pCEP4 (Invitrogen), using the restriction enzymes Kpn I and Not I. The ligation products were transfected into DH5a cells which had been made competent for DNA transformation. […] A clone was selected from the colonies which grew. This clone, pCEPCaR/R1 was characterized by restriction enzyme digestion.\nHuman embryonic kidney cells (293, ATCC, CRL 1573) were grown in a routine manner. Cells were plated in 10 cm cell-culture plates in Dulbecco's modified Eagle's medium (D-MEM) containing 10% fetal calf serum (FCS) and 1×Penicillin-Streptomycin (PS, Life Technologies) so that they would be ˜70% confluent after an overnight incubation. […]\nMeasurements of intracellular calcium release in response to increases in extracellular calcium is quantitated using the Fura assay (Parks et al. 1989). […] Measurements of fluorescence are performed at 37° C. with constant stirring using a custom-built spectrofluorimeter (Biomedical Instrumentation Group, University of Pennsylvania). […] To calibrate fluorescence signals, digitonin (Sigma, St. Louis, Mo.; catalog # D 5628; 50 μg/ml, final) is added to obtain Fmax, and the apparent Fmin is determined by adding EGTA (10 mM, final) and Tris base (pH ˜10, final). […]"}, "mGluR1/CaR": {"biological_target": "T2, mGluR1/CaR (UniProt P23385+P41180)", "T2 construct": "expressed in transfected cells; host or cells: Xenopus laevis oocytes injected with in vitro transcribed RNA", "T2 sequence (P23385+P41180 fused)": "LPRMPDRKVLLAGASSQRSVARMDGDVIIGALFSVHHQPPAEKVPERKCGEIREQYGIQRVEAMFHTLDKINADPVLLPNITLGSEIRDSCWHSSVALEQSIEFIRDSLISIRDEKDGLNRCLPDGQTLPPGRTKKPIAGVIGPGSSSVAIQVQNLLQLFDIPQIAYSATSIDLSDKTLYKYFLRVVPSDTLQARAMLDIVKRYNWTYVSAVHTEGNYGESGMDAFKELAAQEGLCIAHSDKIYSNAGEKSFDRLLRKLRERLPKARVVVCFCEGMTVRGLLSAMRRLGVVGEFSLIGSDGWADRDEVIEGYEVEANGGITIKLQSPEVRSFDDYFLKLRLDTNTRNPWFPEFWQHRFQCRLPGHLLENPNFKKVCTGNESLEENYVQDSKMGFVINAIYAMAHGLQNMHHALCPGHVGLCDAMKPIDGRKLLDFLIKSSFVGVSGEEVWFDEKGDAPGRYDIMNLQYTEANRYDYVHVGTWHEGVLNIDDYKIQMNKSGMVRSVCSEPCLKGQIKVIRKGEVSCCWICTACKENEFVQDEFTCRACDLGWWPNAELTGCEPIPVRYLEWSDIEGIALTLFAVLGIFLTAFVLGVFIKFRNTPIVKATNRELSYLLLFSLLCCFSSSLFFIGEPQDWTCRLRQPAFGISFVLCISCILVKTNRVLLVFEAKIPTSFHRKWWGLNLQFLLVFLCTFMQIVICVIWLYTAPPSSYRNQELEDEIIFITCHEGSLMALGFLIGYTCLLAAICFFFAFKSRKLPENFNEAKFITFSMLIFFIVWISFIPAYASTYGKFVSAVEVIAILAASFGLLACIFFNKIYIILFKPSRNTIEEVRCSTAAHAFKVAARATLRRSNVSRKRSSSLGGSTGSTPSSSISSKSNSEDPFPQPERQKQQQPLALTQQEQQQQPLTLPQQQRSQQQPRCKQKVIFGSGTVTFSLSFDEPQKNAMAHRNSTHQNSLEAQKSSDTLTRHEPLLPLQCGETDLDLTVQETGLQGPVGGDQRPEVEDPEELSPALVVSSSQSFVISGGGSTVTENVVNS", "assay": "Xenopus oocyte voltage clamp, Cl− currents, mGluR1/CaR chimera", "format": "cell-based, rat mGluR1 / human calcium receptor", "conditions": "FIG. 6"}}}
{"smiles": "[Ca+2]", "note": "[calcium]", "values": [{"measurement": "activation of CaR, response amplitudes (Cl− currents in response to increases in intracellular Ca^2+)", "setting": "human CaR; Xenopus oocyte, increasing extracellular calcium, FIG. 7", "result": "activation"}, {"measurement": "intracellular calcium", "setting": "[1]", "result": "increases in intracellular calcium"}]}
{"smiles": "N[C@@H](CCC(=O)O)C(=O)O", "note": "[l-glutamate]", "values": [{"measurement": "Cl− current", "setting": "human CaR; Xenopus oocytes injected with human CaR RNA, FIG. 8B", "result": "elicits oscillatory increases in Cl− current"}]}
{"smiles": "N[C@@H](Cn1oc(=O)[nH]c1=O)C(=O)O", "note": "[quisqualate]", "values": [{"measurement": "activation of mGluR1/CaR as measured by Cl− currents generated in response to the release of intracellular Ca^2+", "setting": "mGluR1/CaR", "result": "activation"}]}
